From patent US6677466B1, “Method for stabilizing hydrogen peroxide” (DSM Fine Chemicals Austria NFG GmbH & Co KG, priority 1999, dated 2004)

Assay: O2 evolution from [Mn2O3{Me3tacn}2](PF6)2-catalysed decomposition of H2O2 with stabilizer
Type: physicochemical
Protocol: A 50% strength aqueous solution of H2O2 (304 mg; 4.46 mmol) was added to 454 mg (4.46 mmol) of methyl pyruvate and to 535 mg (4.46 mmol) of glyoxylic methyl ester methyl hemiacetal, respectively. In the case of methyl pyruvate, a marked evolution of heat was discovered during the addition. After one hour, the H2O2/α-keto ester mixture was mixed with 1 ml of solvent and added to a suspension of 1.0 mg of [Mn2O3{Me3tacn}2](PF6)2 catalyst in 4 ml of solvent. The suspension was introduced into a 50 ml flask which was maintained at room temperature in a water bath. As a result of this addition, in cases where undissolved catalyst was still present, the catalyst dissolved completely.
As a comparison, a suspension of 1.0 mg of [Mn2O3{Me3tacn}2](PF6)2 catalyst in 4 ml of solvent was combined with a 50% strength aqueous solution of H2O2 (304 mg; 4.46 mmol) and 1 ml of solvent without stabilizer.
The amount of oxygen which was evolved from the decomposition of the hydrogen peroxide was determined as a function of time using a Brooks meter, which permitted measurement of the gas flow and the total amount of evolved gas.

SMILES: COC(=O)C(C)=O [methyl pyruvate]
- O2 evolution V(O2) (Vmax(O2)*100%) (solv. acetic acid, t 1 min): 0%
- O2 evolution V(O2) (Vmax(O2)*100%) (solv. acetic acid, t 4 min): 3%
- O2 evolution V(O2) (Vmax(O2)*100%) (solv. acetic acid, t 5 min): 8%
- O2 evolution V(O2) (Vmax(O2)*100%) (solv. acetic acid, t 10 min): 20%
- O2 evolution V(O2) (Vmax(O2)*100%) (solv. acetic acid, t 15 min): 24%
- O2 evolution V(O2) (Vmax(O2)*100%) (solv. acetic acid, t 20 min): 24%
- O2 evolution V(O2) (Vmax(O2)*100%) (solv. acetic acid, t 25 min): 24%
- O2 evolution V(O2) (Vmax(O2)*100%) (solv. acetic acid, t 30 min): 24%
- O2 evolution V(O2) (Vmax(O2)*100%) (solv. acetic acid, t 35 min): 24%
- O2 evolution V(O2) (Vmax(O2)*100%) (solv. acetic acid, t 50 min): 24%
- O2 evolution V(O2) (Vmax(O2)*100%) (solv. acetic acid, t 60 min): 24%
- O2 evolution V(O2) (Vmax(O2)*100%) (solv. acetic acid, t 70 min): 24%
- O2 evolution V(O2) (Vmax(O2)*100%) (solv. acetic acid, t 80 min): 24%
- O2 evolution V(O2) (Vmax(O2)*100%) (solv. acetone, t 1 min): 0%
- O2 evolution V(O2) (Vmax(O2)*100%) (solv. acetone, t 4 min): 0%
- O2 evolution V(O2) (Vmax(O2)*100%) (solv. acetone, t 5 min): 0%
- O2 evolution V(O2) (Vmax(O2)*100%) (solv. acetone, t 10 min): 0%
- O2 evolution V(O2) (Vmax(O2)*100%) (solv. acetone, t 15 min): 0%
- O2 evolution V(O2) (Vmax(O2)*100%) (solv. acetone, t 20 min): 0%
- O2 evolution V(O2) (Vmax(O2)*100%) (solv. acetone, t 25 min): 0%
- O2 evolution V(O2) (Vmax(O2)*100%) (solv. acetone, t 30 min): 0%
- O2 evolution V(O2) (Vmax(O2)*100%) (solv. acetone, t 35 min): 0%
- O2 evolution V(O2) (Vmax(O2)*100%) (solv. acetone, t 50 min): 6%
- O2 evolution V(O2) (Vmax(O2)*100%) (solv. acetone, t 60 min): 12%
- O2 evolution V(O2) (Vmax(O2)*100%) (solv. acetone, t 70 min): 20%
- O2 evolution V(O2) (Vmax(O2)*100%) (solv. acetone, t 80 min): 28%
- O2 evolution V(O2) (Vmax(O2)*100%) (solv. acetonitrile, t 1 min): 0%
- O2 evolution V(O2) (Vmax(O2)*100%) (solv. acetonitrile, t 4 min): 0%
- O2 evolution V(O2) (Vmax(O2)*100%) (solv. acetonitrile, t 5 min): 0%
- O2 evolution V(O2) (Vmax(O2)*100%) (solv. acetonitrile, t 10 min): 3%
- O2 evolution V(O2) (Vmax(O2)*100%) (solv. acetonitrile, t 15 min): 9%
- O2 evolution V(O2) (Vmax(O2)*100%) (solv. acetonitrile, t 20 min): 18%
- O2 evolution V(O2) (Vmax(O2)*100%) (solv. acetonitrile, t 25 min): 25%
- O2 evolution V(O2) (Vmax(O2)*100%) (solv. acetonitrile, t 30 min): 30%
- O2 evolution V(O2) (Vmax(O2)*100%) (solv. acetonitrile, t 35 min): 35%
- O2 evolution V(O2) (Vmax(O2)*100%) (solv. acetonitrile, t 50 min): 38%
- O2 evolution V(O2) (Vmax(O2)*100%) (solv. acetonitrile, t 60 min): 38%
- O2 evolution V(O2) (Vmax(O2)*100%) (solv. acetonitrile, t 70 min): 38%
- O2 evolution V(O2) (Vmax(O2)*100%) (solv. acetonitrile, t 80 min): 38%
- O2 evolution V(O2) (Vmax(O2)*100%) (solv. ethyl acetate, t 1 min): 0%
- O2 evolution V(O2) (Vmax(O2)*100%) (solv. ethyl acetate, t 4 min): 0%
- O2 evolution V(O2) (Vmax(O2)*100%) (solv. ethyl acetate, t 5 min): 0%
- O2 evolution V(O2) (Vmax(O2)*100%) (solv. ethyl acetate, t 10 min): 6%
- O2 evolution V(O2) (Vmax(O2)*100%) (solv. ethyl acetate, t 15 min): 9%
- O2 evolution V(O2) (Vmax(O2)*100%) (solv. ethyl acetate, t 20 min): 9%
- O2 evolution V(O2) (Vmax(O2)*100%) (solv. ethyl acetate, t 25 min): 9%
- O2 evolution V(O2) (Vmax(O2)*100%) (solv. ethyl acetate, t 30 min): 9%
- O2 evolution V(O2) (Vmax(O2)*100%) (solv. ethyl acetate, t 35 min): 9%
- O2 evolution V(O2) (Vmax(O2)*100%) (solv. ethyl acetate, t 50 min): 9%
- O2 evolution V(O2) (Vmax(O2)*100%) (solv. ethyl acetate, t 60 min): 9%
- O2 evolution V(O2) (Vmax(O2)*100%) (solv. ethyl acetate, t 70 min): 9%
- O2 evolution V(O2) (Vmax(O2)*100%) (solv. ethyl acetate, t 80 min): 9%
- O2 evolution V(O2) (Vmax(O2)*100%) (solv. methanol, t 1 min): 1%
- O2 evolution V(O2) (Vmax(O2)*100%) (solv. methanol, t 4 min): 2%
- O2 evolution V(O2) (Vmax(O2)*100%) (solv. methanol, t 5 min): 2%
- O2 evolution V(O2) (Vmax(O2)*100%) (solv. methanol, t 10 min): 2%
- O2 evolution V(O2) (Vmax(O2)*100%) (solv. methanol, t 15 min): 2%
- O2 evolution V(O2) (Vmax(O2)*100%) (solv. methanol, t 20 min): 2%
- O2 evolution V(O2) (Vmax(O2)*100%) (solv. methanol, t 25 min): 2%
- O2 evolution V(O2) (Vmax(O2)*100%) (solv. methanol, t 30 min): 2%
- O2 evolution V(O2) (Vmax(O2)*100%) (solv. methanol, t 35 min): 2%
- O2 evolution V(O2) (Vmax(O2)*100%) (solv. methanol, t 50 min): 2%
- O2 evolution V(O2) (Vmax(O2)*100%) (solv. methanol, t 60 min): 2%
- O2 evolution V(O2) (Vmax(O2)*100%) (solv. methanol, t 70 min): 2%
- O2 evolution V(O2) (Vmax(O2)*100%) (solv. methanol, t 80 min): 2%
- O2 evolution V(O2) (Vmax(O2)*100%) (solv. t-butanol, t 1 min): 0%
- O2 evolution V(O2) (Vmax(O2)*100%) (solv. t-butanol, t 4 min): 0%
- O2 evolution V(O2) (Vmax(O2)*100%) (solv. t-butanol, t 5 min): 0%
- O2 evolution V(O2) (Vmax(O2)*100%) (solv. t-butanol, t 10 min): 0%
- O2 evolution V(O2) (Vmax(O2)*100%) (solv. t-butanol, t 15 min): 0%
- O2 evolution V(O2) (Vmax(O2)*100%) (solv. t-butanol, t 20 min): 0%
- O2 evolution V(O2) (Vmax(O2)*100%) (solv. t-butanol, t 25 min): 0%
- O2 evolution V(O2) (Vmax(O2)*100%) (solv. t-butanol, t 30 min): 0%
- O2 evolution V(O2) (Vmax(O2)*100%) (solv. t-butanol, t 35 min): 0%
- O2 evolution V(O2) (Vmax(O2)*100%) (solv. t-butanol, t 50 min): 0%
- O2 evolution V(O2) (Vmax(O2)*100%) (solv. t-butanol, t 60 min): 0%
- O2 evolution V(O2) (Vmax(O2)*100%) (solv. t-butanol, t 70 min): 0%
- O2 evolution V(O2) (Vmax(O2)*100%) (solv. t-butanol, t 80 min): 0%
